Results from ChEMBL document CHEMBL6096669, “Design and synthesis of novel derivatives of bisepoxylignans as potent anti-inflammatory agents involves the modulation of the M1/M2 microglia phenotype via TLR4/NF-κB signaling pathway” (Eur J Med Chem, 2025).
The source made the active and inactive calls. The rule behind the calls is not given here.

Experiments:
[1] = tested on: BV-2; assay: (§1) Inhibition of LPS-induced NO production in mouse BV-2 cells at 10 uM measured after 24 hrs followed by induced with LPS for another 24 hrs by ELISA relative to control; format: functional
[2] = Cytotoxicity against mouse BV-2 cells assessed as cell viability at 10 uM measured after 24 hrs by MTT assay relative to control; format: toxicity, cell-based; conditions: read-out: Activity
[3] = as §1; format: functional
[4] = Permeability of compound in PBS/EtOH (70:30) buffer incubated for 18 hrs by PAMPA-BBB assay
[5] = tested on: BV-2; assay: Anti-inflammatory activity against LPS-induced mouse BV-2 cells assessed as decrease in LPS-induced Cyclooxygenase-2 mRNA expression at 20 uM incubated for 4 hrs followed by LPS induced for 12 hrs by RT-PCR analysis relative to control; format: functional, cell-based; conditions: time 16.0 hrs

log Pe [4]	Structure (SMILES)	inhibition [1]	viability at 24 h, 10 µM [2] [%]	inhibition at 10 µM [3] [%]	Activity [5]
	COc1ccc(Cn2ccc3c(Nc4ccc5[nH]c(=O)[nH]c5c4)ncnc32)cc1OC	inactive	75.2		
	Cc1ccc(Cn2ccc3c(Nc4ccc5[nH]c(=O)[nH]c5c4)ncnc32)cc1	inactive	77.2		
	O=c1[nH]c2ccc(Nc3ncnc4c3ccn4Cc3ccc(F)cc3F)cc2[nH]1		98.2	54.3	
	O=c1[nH]c2ccc(Nc3ncnc4c3cnn4Cc3cccc(Cl)c3F)cc2[nH]1	inactive	53.3		
	O=c1[nH]c2ccc(Nc3ncnc4c3ccn4Cc3ccccc3)cc2[nH]1		99.7	76.6	
	O=c1[nH]c2ccc(Nc3ncnc4c3ccn4Cc3ccc(F)c(Cl)c3)cc2[nH]1	inactive	57.3		
	COc1cc(Cn2ccc3c(Nc4ccc5scnc5c4)ncnc32)cc(OC)c1	inactive	84.5		
	O=c1[nH]c2ccc(Nc3ncnc4c3ccn4Cc3c(Cl)cccc3Cl)cc2[nH]1	inactive	57.6		
	O=c1[nH]c2ccc(Nc3ncnc4c3ccn4Cc3ccc(I)cc3)cc2[nH]1		98.7	74.5	
	O=c1[nH]c2ccc(Nc3ncnc4c3ccn4Cc3ccc(F)cc3Cl)cc2o1		85.7	54.3	
	COc1cc(Cn2ccc3c(Nc4ccc5[nH]c(=O)[nH]c5c4)ncnc32)cc(OC)c1		107	42.5	
	O=c1[nH]c2ccc(Nc3ncnc4c3ccn4Cc3ccc(Cl)c(F)c3)cc2[nH]1		83.1	103	
	O=c1[nH]c2ccc(Nc3ncnc4c3ccn4Cc3cccc(F)c3Cl)cc2[nH]1	inactive	42.2		
	O=c1[nH]c2ccc(Nc3ncnc4c3cnn4Cc3cccc(F)c3Cl)cc2[nH]1		83.2	96.2	
	O=c1[nH]c2ccc(Nc3ncnc4c3ccn4Cc3cc(F)cc(Cl)c3)cc2[nH]1		104	45.7	
	COc1cc([C@H]2OC[C@H]3[C@@H]2CO[C@@H]3c2cc(OC)c(O)c(OC)c2)cc(OC)c1O [SYRINGARESINOL]		91	75.6	
	Cn1ncc2cc(Nc3ncnc4c3ccn4Cc3ccc(F)cc3Cl)ccc21	inactive	79.2		
	O=c1[nH]c2ccc(Nc3ncnc4c3cnn4Cc3ccc(Cl)cc3F)cc2[nH]1	inactive	57.8		
	O=c1[nH]c2ccc(Nc3ncnc4c3ccn4Cc3cccc(Cl)c3F)cc2[nH]1	inactive	73		
	Fc1ccc(Cn2ccc3c(Nc4ccc5c(c4)OCO5)ncnc32)c(Cl)c1		96.9	46.8	
	O=c1[nH]c2ccc(Nc3ncnc4c3ccn4Cc3cc(C(F)(F)F)cc(C(F)(F)F)c3)cc2[nH]1	inactive	58.5		
	O=c1[nH]c2ccc(Nc3ncnc4c3ccn4Cc3c(F)cccc3Cl)cc2[nH]1	inactive	77.2		
	O=c1[nH]c2ccc(Nc3ncnc4c3cnn4Cc3cc(F)cc(Cl)c3)cc2[nH]1		92.9	61.7	
	Cc1ccccc1Cn1ccc2c(Nc3ccc4[nH]c(=O)[nH]c4c3)ncnc21		81.8	63.5	
-6.06	CC1(C)S[C@@H]2[C@H](NC(=O)Cc3ccccc3)C(=O)N2[C@H]1C(=O)[O-].[Na+] [PENICILLIN G SODIUM]				

log Pe [4]	Structure (SMILES)	inhibition [1]	viability at 24 h, 10 µM [2] [%]	inhibition at 10 µM [3] [%]	Activity [5]
	O=c1[nH]c2ccc(Nc3ncnc4c3ccn4Cc3ccc(Cl)cc3F)cc2[nH]1	inactive	72.1		
	O=C(Cn1ccc2c(Nc3ccc4[nH]c(=O)[nH]c4c3)ncnc21)N1CCOCC1		102	54.3	
	O=C(Cn1ccc2c(Nc3ccc4[nH]c(=O)[nH]c4c3)ncnc21)c1ccccc1	inactive	74.3		
	COc1cc(Cn2ccc3c(Nc4ccc5cn[nH]c5c4)ncnc32)cc(OC)c1		118	77.7	
	COc1cc(Cn2ccc3c(Nc4ccc5c(c4)OCO5)ncnc32)cc(OC)c1		93.2	70.2	
-6.24	CCn1cc(C(=O)O)c(=O)c2cc(F)c(N3CCNCC3)nc21 [ENOXACIN]				
	O=c1[nH]c2ccc(Nc3ncnc4c3ccn4Cc3cccc4ccccc34)cc2[nH]1	inactive	59.7		
	O=c1[nH]c2ccc(Nc3ncnc4c3ccn4Cc3ccc(F)cc3Cl)cc2[nH]1		84.5	78.5	
	COc1ccc2c3c1O[C@H]1C[C@@H](O)C=C[C@@]31CCNC2		91.2	55.7	Active
	O=c1[nH]c2ccc(Nc3ncnc4c3ccn4Cc3cc(Cl)ccc3F)cc2[nH]1	inactive	70.3		
	Cc1cccc(Cn2ccc3c(Nc4ccc5[nH]c(=O)[nH]c5c4)ncnc32)c1	inactive	59		
	O=c1[nH]c2ccc(Nc3ncnc4c3ccn4Cc3ccc4c(c3)OCO4)cc2[nH]1		89.3	56.3	
	COc1cc(Cn2ccc3c(Nc4ccc5c(c4)CC(=O)N5)ncnc32)cc(OC)c1	inactive	53		
	COc1cc(Cn2ccc3c(Nc4ccc5[nH]c(=O)oc5c4)ncnc32)cc(OC)c1	inactive	59.3		
	Fc1ccc(Cn2ccc3c(Nc4ccc5scnc5c4)ncnc32)c(Cl)c1	inactive	61.7		
	O=C1Cc2cc(Nc3ncnc4c3ccn4Cc3ccc(F)cc3Cl)ccc2N1	inactive	56.6		
	COc1cc(Cn2ccc3c(Nc4ccc5c(cnn5C)c4)ncnc32)cc(OC)c1		62.5	63.8	
	COc1cccc(Cn2ccc3c(Nc4ccc5[nH]c(=O)[nH]c5c4)ncnc32)c1		88.5	63.8	
	Fc1ccc(Cn2ccc3c(Nc4ccc5cn[nH]c5c4)ncnc32)c(Cl)c1	inactive	76.2		
	O=c1[nH]c2ccc(Nc3ncnc4c3ccn4Cc3ccc(Cl)cc3)cc2[nH]1		91.7	71.3	
	O=c1[nH]c2ccc(Nc3ncnc4c3ccn4Cc3cccc4cccnc34)cc2[nH]1		84.7	43.8	
	O=c1[nH]c2ccc(Nc3ncnc4c3cnn4Cc3cc(Cl)cc(Cl)c3)cc2[nH]1	inactive	52.2		
	O=c1[nH]c2ccc(Nc3ncnc4c3ccn4Cc3cc(F)ccc3F)cc2[nH]1	inactive	50.7		
	COc1ccc(Cn2ccc3c(Nc4ccc5[nH]c(=O)[nH]c5c4)ncnc32)cc1		115	76.6	
